Among the test systems are MOLT-4 leukemia; NCI-H23 lung; OVCAR-4 ovarian; IGROV1 ovarian; HCT-15 colon; OVCAR-8 ovarian; UO-31 renal; SR leukemia; BT-549 breast.
What all share (assay): DTP human tumour cell line panel, 48 h

In PubChem BioAssay (NCI) one finds TGI and GI50 data, which are given here for 13 compounds.

The structures appear in SMILES notation. Several values for one entry are separate records, joined by “and”; a condition that tells them apart may be missing. Equal values may be shown once.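 Dose response: 5 concentrations. Exposure: 48 h. Format: 96-well plates. Endpoint: linear interpolation; highest concentration if not reached. GI50: concentration for 50% inhibition of growth. TGI: total growth inhibition.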 Bounds are passed on as bounds.

For the compound `CCOC(=O)/C(=C\c1ccc(N(CCC#N)CCC#N)cc1)NC(=O)c1cc([N+](=O)[O-])ccc1Cl`, the TGI with MOLT-4 leukemia, in the experiment with NCI-H23 lung, with OVCAR-4 ovarian, with IGROV1 ovarian, with HCT-15 colon and in the experiment on OVCAR-8 ovarian was above 100 µM throughout. Also, the TGI in the experiment with UO-31 renal is above 100 µM.
With `COc1cc(OC)c(SSCCCCS(=O)O)c(OC)c1`, the TGI with MOLT-4 leukemia was 26.8 µM; in the experiment on NCI-H23 lung, 30.5 µM; in the experiment on OVCAR-4 ovarian, above 100 µM; in the experiment on IGROV1 ovarian it was 57.8 µM; with HCT-15 colon, 34.2 µM; with OVCAR-8 ovarian, 34.1 µM. This compound also had a TGI in the experiment with UO-31 renal of 40.6 µM.
As for `CC(=O)OC1CCn2nnc(CO)c21` (centres undefined), the TGI with MOLT-4 leukemia, in the experiment with NCI-H23 lung, in the experiment with SR leukemia, in the experiment with OVCAR-4 ovarian, in the experiment with IGROV1 ovarian and in the experiment on HCT-15 colon was above 100 µM throughout. Besides, the TGI with OVCAR-8 ovarian and in the experiment on UO-31 renal was above 100 µM in each case.
Consider `CC(=O)CC(N)=O`, for which the TGI in the experiment on MOLT-4 leukemia, in the experiment with NCI-H23 lung, with SR leukemia, in the experiment on OVCAR-4 ovarian, in the experiment with IGROV1 ovarian and in the experiment on HCT-15 colon was above 100 µM in each case. The TGI in the experiment on OVCAR-8 ovarian and in the experiment on UO-31 renal was above 100 µM in each case.
As for `CC1=C(C(=O)Nc2cc(=O)n(C)c(=O)n2C)C(c2cccc([N+](=O)[O-])c2)C(C(=O)Nc2cc(=O)n(C)c(=O)n2C)=C(C)N1`, the TGI in the experiment on MOLT-4 leukemia, in the experiment with NCI-H23 lung, in the experiment on OVCAR-4 ovarian, in the experiment with IGROV1 ovarian, in the experiment on OVCAR-8 ovarian and with UO-31 renal was above 100 µM throughout.
Turning to `CN1CC(=O)N(C)c2ncn(Cc3ccccc3)c2C1=O`, the TGI in the experiment on MOLT-4 leukemia, in the experiment with NCI-H23 lung, with SR leukemia, in the experiment with OVCAR-4 ovarian, in the experiment with IGROV1 ovarian and with HCT-15 colon was above 100 µM in each case. For the same compound, the TGI in the experiment with OVCAR-8 ovarian and in the experiment with UO-31 renal was above 100 µM throughout.
Consider `C=C(C#N)C1OCC2OC(C)(C)OC21` (centres undefined), for which the TGI in the experiment on MOLT-4 leukemia was 43.3 µM; in the experiment on NCI-H23 lung, 34.8 µM; in the experiment with OVCAR-4 ovarian it was 33.6 µM; in the experiment with IGROV1 ovarian, above 100 µM; in the experiment on HCT-15 colon it was 35.3 µM; in the experiment on OVCAR-8 ovarian it was 48.7 µM. In the experiment with UO-31 renal, the TGI was above 100 µM.
Regarding `Cc1cccc(C)c1CO`, the TGI in the experiment with MOLT-4 leukemia, in the experiment on NCI-H23 lung, in the experiment on SR leukemia, in the experiment on OVCAR-4 ovarian, in the experiment on IGROV1 ovarian and with HCT-15 colon was above 100 µM each time. For the same compound, the TGI in the experiment on OVCAR-8 ovarian and with UO-31 renal was above 100 µM in each case.
For `CC(C)[O-].CC(C)[O-].O=C1C=C([O-])C(=O)c2ccccc21.O=C1C=C([O-])C(=O)c2ccccc21.[Ti+4]`, the GI50 in the experiment on MOLT-4 leukemia is above 100 µM; with NCI-H23 lung, 3.94 µM; in the experiment with OVCAR-4 ovarian, above 100 µM; in the experiment with IGROV1 ovarian it was above 100 µM; with HCT-15 colon, above 73.4 µM; in the experiment with OVCAR-8 ovarian it was above 100 µM. The GI50 in the experiment with UO-31 renal was above 100 µM. Besides, the TGI was above 100 µM with MOLT-4 leukemia; above 79.3 µM in the experiment on NCI-H23 lung; above 100 µM in the experiment with OVCAR-4 ovarian; above 100 µM in the experiment with IGROV1 ovarian; above 100 µM in the experiment on HCT-15 colon; above 100 µM in the experiment on OVCAR-8 ovarian. In the experiment with UO-31 renal, the TGI was above 100 µM.
In the case of `O=C(CCc1nnc2s/c(=C\c3ccc(Cl)c(Cl)c3)c(=O)n12)Nc1ccc(Cl)c(Cl)c1`, the TGI was 52.6 µM in the experiment on MOLT-4 leukemia; above 100 µM with NCI-H23 lung; 74 µM in the experiment on SR leukemia; above 100 µM in the experiment with OVCAR-4 ovarian; above 100 µM with IGROV1 ovarian; above 100 µM with HCT-15 colon. The TGI with OVCAR-8 ovarian was 43.6 µM; with UO-31 renal, above 100 µM.
As for `CC(=O)[CH-]C(=O)c1ccccc1.CC(=O)[CH-]C(=O)c1ccccc1.CC(C)CCCC(C)[C@H]1CCC2[C@@H]3CC=C4C[C@@H]([O-])CC[C@]4(C)C3CC[C@@]21C.CC(C)CCCC(C)[C@H]1CCC2[C@@H]3CC=C4C[C@@H]([O-])CC[C@]4(C)C3CC[C@@]21C.[Ti+4]` (some centres undefined), the GI50 with MOLT-4 leukemia, in the experiment on NCI-H23 lung, in the experiment with OVCAR-4 ovarian, with IGROV1 ovarian, in the experiment with HCT-15 colon and in the experiment on OVCAR-8 ovarian was above 100 µM in each case. In the experiment on UO-31 renal, the GI50 was above 100 µM. Besides, the TGI in the experiment on MOLT-4 leukemia, in the experiment with NCI-H23 lung, with OVCAR-4 ovarian, with IGROV1 ovarian, in the experiment with HCT-15 colon and in the experiment with OVCAR-8 ovarian was above 100 µM each time. For the same compound, the TGI in the experiment with UO-31 renal was above 100 µM.
Turning to `COc1ccc(NC(=O)CC/C(CC(=O)C(C)(C)C)=N\NC(=O)C(=O)NN)cc1`, the TGI in the experiment with MOLT-4 leukemia, in the experiment with NCI-H23 lung, with SR leukemia, in the experiment on OVCAR-4 ovarian, with IGROV1 ovarian and in the experiment with HCT-15 colon was above 100 µM in each case. Besides, in the experiment with UO-31 renal, the TGI was above 100 µM.
Turning to `COc1cc(Nc2nc3ccccc3nc2NS(=O)(=O)c2ccc(NC(=O)c3ccc(C)c(OC)c3)cc2)cc(OC)c1`, the GI50 is 4.58 µM and 14.4 µM and 2.25 µM in the experiment with MOLT-4 leukemia; 2.27 µM and 12.5 µM and 1.33 µM in the experiment on NCI-H23 lung; 4.97 µM and 19.9 µM and 2 µM in the experiment on HCT-15 colon; 4.19 µM and 20.5 µM and 2.82 µM in the experiment with OVCAR-8 ovarian. Further, the total growth inhibition concentration (TGI) is 45.7 µM and 43.3 µM and > 10 µM with MOLT-4 leukemia; 17.3 µM and 58.9 µM and > 10 µM in the experiment on NCI-H23 lung; 51.2 µM and 49.1 µM and > 10 µM with SR leukemia; above 100 µM in the experiment with OVCAR-4 ovarian; 20.9 µM and 49.2 µM and > 6.49 µM in the experiment on BT-549 breast; above 100 µM in the experiment with HCT-15 colon. Further, the TGI in the experiment with OVCAR-8 ovarian is above 100 µM; in the experiment on UO-31 renal, 9.07 µM and 46.1 µM and > 5.04 µM.
